For the experiment, the target named is ATP-binding cassette sub-family C member 8 (Homo sapiens, UniProt Q09428). Description: Binding Activity of the Compounds of the Present Disclosure for SUR1 Receptor. The procedure: The plate was incubated at 4° C. for 1 h.f) The […]-96 GF/C and […]-96 GF/B plates were washed twice with Universal Harvester, each time with 50 mL of washing solution.g) The SUR1 receptor reaction system was transferred to a […]-96 GF/B plate with Universal Harvester, and 900 μL of washing solution was added to each well to wash the GF/B plate 4 times. The washed […]-96 GF/B plate was dried in an oven at 55° C. for 10 min.h) 40 μL of ULTIMA GOLD scintillation solution was added to each well, and the plate was read using Microbeta.

pIC50: −log10 of the molar value.

Consider one molecule from BindingDB's records for patent US20230348371 (Shanghai Senhui Medicine, 2023).

Sequence of ATP-binding cassette sub-family C member 8 (Q09428 whole entry): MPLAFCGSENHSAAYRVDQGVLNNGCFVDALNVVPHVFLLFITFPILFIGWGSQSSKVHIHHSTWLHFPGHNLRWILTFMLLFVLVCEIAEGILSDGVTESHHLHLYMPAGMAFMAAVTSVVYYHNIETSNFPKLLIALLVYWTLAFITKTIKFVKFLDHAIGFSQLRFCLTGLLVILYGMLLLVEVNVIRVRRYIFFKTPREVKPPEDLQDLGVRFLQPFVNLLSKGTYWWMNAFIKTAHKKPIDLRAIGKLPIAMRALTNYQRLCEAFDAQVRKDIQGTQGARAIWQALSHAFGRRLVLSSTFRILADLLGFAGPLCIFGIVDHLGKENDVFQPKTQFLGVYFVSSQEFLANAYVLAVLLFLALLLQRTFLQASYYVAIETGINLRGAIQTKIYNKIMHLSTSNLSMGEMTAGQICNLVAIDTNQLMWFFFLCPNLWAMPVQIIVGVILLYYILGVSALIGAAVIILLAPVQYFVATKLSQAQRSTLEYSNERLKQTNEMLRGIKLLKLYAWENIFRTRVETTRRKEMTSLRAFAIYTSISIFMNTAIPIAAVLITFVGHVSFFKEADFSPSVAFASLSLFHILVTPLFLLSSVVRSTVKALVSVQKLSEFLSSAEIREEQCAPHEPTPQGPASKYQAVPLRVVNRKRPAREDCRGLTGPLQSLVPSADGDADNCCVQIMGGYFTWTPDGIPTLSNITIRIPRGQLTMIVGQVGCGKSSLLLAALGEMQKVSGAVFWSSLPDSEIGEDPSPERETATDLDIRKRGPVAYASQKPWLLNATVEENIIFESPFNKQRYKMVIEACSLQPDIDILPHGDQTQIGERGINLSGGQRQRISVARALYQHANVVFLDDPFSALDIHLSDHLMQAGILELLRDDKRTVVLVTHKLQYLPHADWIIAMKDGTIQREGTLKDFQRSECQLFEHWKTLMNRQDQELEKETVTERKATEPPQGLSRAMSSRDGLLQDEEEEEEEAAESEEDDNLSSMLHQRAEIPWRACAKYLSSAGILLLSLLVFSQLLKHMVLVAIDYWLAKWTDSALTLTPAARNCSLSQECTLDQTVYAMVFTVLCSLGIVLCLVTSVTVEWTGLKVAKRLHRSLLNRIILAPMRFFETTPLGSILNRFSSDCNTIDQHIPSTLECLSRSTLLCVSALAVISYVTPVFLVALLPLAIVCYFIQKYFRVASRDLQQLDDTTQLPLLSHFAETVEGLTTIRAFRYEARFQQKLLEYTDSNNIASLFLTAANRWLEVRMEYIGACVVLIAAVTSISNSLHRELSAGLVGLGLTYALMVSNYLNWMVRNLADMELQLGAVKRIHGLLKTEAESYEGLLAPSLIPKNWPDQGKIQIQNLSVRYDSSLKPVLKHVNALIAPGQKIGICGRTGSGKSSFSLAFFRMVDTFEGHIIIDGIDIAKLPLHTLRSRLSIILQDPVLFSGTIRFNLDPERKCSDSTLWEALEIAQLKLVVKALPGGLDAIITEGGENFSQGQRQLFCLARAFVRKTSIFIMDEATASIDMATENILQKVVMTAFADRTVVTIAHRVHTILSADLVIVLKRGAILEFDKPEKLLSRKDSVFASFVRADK

In turn, `COc1ccc(Cl)cc1C(=O)NCCc1ccc(S(=O)(=O)NC(=O)N[C@H]2CC[C@H](O)CC2)cc1` [US20230348371, Compound 4] gave a pIC50 of 8.10.

For orientation: pIC50 means the negative decadic logarithm of the IC50, by convention in mol/L. Low values mean a high IC50, high ones a low IC50.
